Structures can show the parent of a compound that is named as a salt.
Tests used:
[1] = molecular target: 5-hydroxytryptamine receptor 6 (Mus musculus, UniProt Q9R1C8)
[2] = molecular target: 5-hydroxytryptamine receptor 6 (Rattus norvegicus, UniProt P31388)
[3] = molecular target: 5-hydroxytryptamine receptor 6 (Homo sapiens, UniProt P50406)
Chain of 5-hydroxytryptamine receptor 6 (Homo sapiens, UniProt P50406) (P50406 whole entry): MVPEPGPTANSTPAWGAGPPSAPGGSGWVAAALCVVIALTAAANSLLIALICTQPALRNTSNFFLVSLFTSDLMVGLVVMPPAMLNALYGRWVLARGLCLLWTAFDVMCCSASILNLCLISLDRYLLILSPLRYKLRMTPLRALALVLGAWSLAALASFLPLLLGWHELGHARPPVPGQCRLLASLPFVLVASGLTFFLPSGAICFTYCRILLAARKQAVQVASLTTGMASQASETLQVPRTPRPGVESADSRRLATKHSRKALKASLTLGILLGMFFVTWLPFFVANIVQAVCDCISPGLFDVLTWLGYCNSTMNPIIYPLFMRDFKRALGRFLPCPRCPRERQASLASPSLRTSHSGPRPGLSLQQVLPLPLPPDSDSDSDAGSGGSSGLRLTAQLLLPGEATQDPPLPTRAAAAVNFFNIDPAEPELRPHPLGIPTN

Chain of 5-hydroxytryptamine receptor 6 (Rattus norvegicus, UniProt P31388) (P31388 whole entry): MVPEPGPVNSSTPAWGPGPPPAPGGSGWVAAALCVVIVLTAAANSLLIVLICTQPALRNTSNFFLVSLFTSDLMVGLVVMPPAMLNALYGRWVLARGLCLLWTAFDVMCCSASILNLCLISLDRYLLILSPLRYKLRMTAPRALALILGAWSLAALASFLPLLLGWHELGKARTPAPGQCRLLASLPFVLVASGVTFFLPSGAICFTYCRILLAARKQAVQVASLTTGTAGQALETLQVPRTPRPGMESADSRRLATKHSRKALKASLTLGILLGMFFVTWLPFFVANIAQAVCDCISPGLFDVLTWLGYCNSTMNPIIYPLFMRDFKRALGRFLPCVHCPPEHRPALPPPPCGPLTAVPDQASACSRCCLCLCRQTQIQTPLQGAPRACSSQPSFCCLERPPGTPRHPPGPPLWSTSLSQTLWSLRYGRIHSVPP
Chain of 5-hydroxytryptamine receptor 6 (Mus musculus, UniProt Q9R1C8) (Q9R1C8 whole entry): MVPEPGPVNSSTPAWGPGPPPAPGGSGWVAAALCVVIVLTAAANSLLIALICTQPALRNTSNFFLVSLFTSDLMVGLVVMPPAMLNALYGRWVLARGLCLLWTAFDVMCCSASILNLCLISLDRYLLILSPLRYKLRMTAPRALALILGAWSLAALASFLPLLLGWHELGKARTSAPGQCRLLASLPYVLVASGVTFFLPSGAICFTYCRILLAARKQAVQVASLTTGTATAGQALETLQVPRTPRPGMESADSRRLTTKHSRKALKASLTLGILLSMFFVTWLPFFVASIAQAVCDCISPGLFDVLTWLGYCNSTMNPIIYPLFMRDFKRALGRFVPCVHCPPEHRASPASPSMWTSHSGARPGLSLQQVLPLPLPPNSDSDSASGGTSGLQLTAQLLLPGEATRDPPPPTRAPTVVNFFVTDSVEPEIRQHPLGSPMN

| SMILES | Ki [1] | Ki [2] | Ki [3] |
| --- | --- | --- | --- |
| COc1ccc(NS(=O)(=O)c2sc3ccc(Cl)cc3c2C)cc1N1CCNCC1 | 0.00123 µM | 0.00071 µM | – |
| CN(C)CCC=C1c2ccccc2CCc2ccccc21 | 0.0891 µM | 0.182 µM | 0.141 µM |
| COc1ccc(NS(=O)(=O)c2ccc(Br)cc2)cc1N1CCN(C)CC1 | 0.0229 µM | 0.00479 µM | 0.00282 µM |
| CN1CCN(C2=c3ccccc3=Nc3ccc(Cl)cc3N2)CC1 [6-chloro-10-(4-methylpiperazin-1-yl)-2,9-diazatricyclo[9.4.0.0^{3,8}]pentadeca-1,3(8),4,6,10,12,14-heptaene] | 0.00646 µM | – | – |
| CN1CCN2c3ccccc3Cc3ccccc3C2C1 (stereo not drawn) [MIANSERIN HYDROCHLORIDE] | 0.00324 µM | – | – |
| COc1ccc(S(=O)(=O)Nc2cc(Br)cc(F)c2Br)cc1N1CCNCC1 [N-(2,5-dibromo-3-fluorophenyl)-4-methoxy-3-(piperazin-1-yl)benzenesulfonamide] | 0.0617 µM | 0.00141 µM | – |
| CCN(CC)C(=O)C1C=C2c3cccc4[nH]cc(c34)CC2N(C)C1 (stereo not drawn) [NSC_3981] | 0.00282 µM | 0.00263 µM | – |
| CNc1cc(NS(=O)(=O)c2ccc(N)cc2)nc(NC)n1 [Ro-04-6790] | > 10 µM | 0.0288 µM | 0.0513 µM |
| COc1ccc(NS(=O)(=O)c2sc3ccc(Cl)cc3c2C)cc1N1CCN(C)CC1 [SB-258510] | 0.001 µM | 0.00076 µM | – |
| COc1ccc(NS(=O)(=O)c2ccc(I)cc2)cc1N1CCN(C)CC1 [SB-258585] | 0.0112 µM | 0.00229 µM | – |
| CNS(=O)(=O)Cc1ccc2[nH]cc(CCN(C)C)c2c1 [Sumax] | 5.62 µM | > 10 µM | > 10 µM |
| NCCc1c[nH]c2ccc(O)cc12 [[3H]-5-HT] | 0.0955 µM | 0.0794 µM | – |
| CSc1ccc2c(c1)C(N1CCN(C)CC1)Cc1ccccc1S2 (stereo not drawn) [methanesulfonic acid;1-methyl-4-(3-methylsulfanyl-5,6-dihydrobenzo[b][1]benzothiepin-5-yl)piperazine] | 0.00056 µM | – | – |
| COc1ccc2[nH]cc(CCN)c2c1 [tryptamine, 5-Methoxy] | – | 0.0224 µM | – |
